According to patent US10485880B2, “Antibody-drug conjugates (ADCs) of KSP inhibitors with aglycosylated anti-TWEAKR antibodies” (Bayer Pharma Aktiengesellschaft, priority 2015, dated 2019):
Values belong to the molecule of their own block, whether it stands above or below them.

Experiments:
NCI-H292 cells = experiment: Cytotoxicity of metabolites, MTT assay, NCI-H292; type: cell-based, human
Method: NCI-H292: human mucoepidermoid lung carcinoma cells, ATCC-CRL-1848, standard medium: RPMI 1640 (Biochrom; #FG1215, stab. glutamine)+10% FCS (Biochrom; #S0415), TWEAKR-positive, EGFR-positive.
The cells were cultivated according to the standard method using the growth media listed under C-1. The test is carried out by detaching the cells with a solution of Accutase in PBS (Biochrom AG #L2143), pelleting, resuspending in culture medium, counting and sowing into a 96-well culture plate with white bottom (Costar #3610) (NCI H292: 2500 cells/well, KPL-4: 1200 cells/well, LoVo: 1000 cells/well in a total volume of 100 μl). The cells were then incubated in an incubator at 37° C. and 5% carbon dioxide. After 48 h, the medium was replaced. The metabolites in 10 μl of culture medium in concentrations from 10^−5M to 10^−13M were then pipetted to the cells (in triplicate), and the assay was then incubated in an incubator at 37° C. and 5% carbon dioxide. […] To this end, the MTT reagent was incubated with the cells for 4 h, followed by lysis of the cells overnight by addition of the detergent. The dye formed was detected at 570 nm (Infinite M1000 pro, Tecan). The measured data were used to calculate the IC50 of the growth inhibition using the DRC (dose response curve). […]

TWEAKR = target: T1, TWEAKR (Homo sapiens, UniProt Q9NP84); experiment: Agonistic activity of anti-TWEAKR antibodies; type: cell-based
T1 construct: endogenous in cells; host or cells: HT29 (also WiDr, A253, NCI-H322, 786-O)
T1 sequence (Q9NP84 28-129): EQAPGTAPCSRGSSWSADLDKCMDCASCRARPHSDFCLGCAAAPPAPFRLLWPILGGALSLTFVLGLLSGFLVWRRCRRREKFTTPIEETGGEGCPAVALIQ
Source text: In this regard, one embodiment of the invention is the provision of antibodies or antigen-binding antibody fragments thereof binding specifically to a TWEAKR at a new epitope, distinguished by selective binding to aspartate (D) at position 47 (D47) of TWEAKR (SEQ ID NO: 169; see also FIG. 1). The identified dependencies of certain TWEAKR amino acids for antibody interaction correlate with the agonistic activity determined for these antibodies. […] Thus, TWEAK binds to a similar, but distinguishable binding site (FIG. 7). Accordingly, the antibodies of the present invention, which show strong agonistic activity, bind to a new epitope (as a function of D47) which is associated with very strong agonistic activity.

Molecule: CC(C)(C)[C@H](c1cc(-c2cc(F)ccc2F)cn1Cc1ccccc1)N(CCCN)C(=O)CO [Example M9, N-(3-Aminopropyl)-N-{(1R)-1-[1-benzyl-4-(2,5-difluorophenyl)-1H-pyrrol-2-yl]-2,2-dimethylpropyl}-2-hydroxyacetamide]
IC50 (NCI-H292 cells; Homo sapiens, NCI-H292, 96 h incubation): 0.924 nM

Molecule: CC(C)(C)[C@H](c1cc(-c2cc(F)ccc2F)cn1Cc1ccccc1)N(CC[C@H](N)C(=O)NCCNC(=O)CNC(=O)CC(SC[C@H](N)C(=O)O)C(=O)O)C(=O)CO (stereo partly drawn) [Example M2-1, 4-[(2-{[2-({(2S)-2-Amino-4-[{(1R)-1-[1-benzyl-4-(2,5-difluorophenyl)-1H-pyrrol-2-yl]-2,2-dimethylpropyl}(glycoloyl)amino]butanoyl}amino)ethyl]amino}-2-oxoethyl)amino]-2-{[(2R)-2-amino-2-carboxyethyl]sulphanyl}-4-oxobutanoic acid/trifluoroacetic acid (1:1)]
IC50 (NCI-H292 cells; 96 h incubation): 265 nM

Agonistic activity (TWEAKR): moderate agonistic activity
B1: PLD-192: "PLD-192 shows moderate agonistic activity and binds as a function of R56 to the cysteine-rich domain, but opposite of the TWEAK ligand site" (antibody, chains of the INN, looked up, V domains shown)
VH: EVQLVESGGGLVQPGGSLRLSCAASGFTFSSYWMSWVRQAPGKGLEWVAEIRLKSDNYATHYAESVKGRFTISRDDSKNSLYLQMNSLRAEDTAVYYCTGYYADAMDYWGQGTLVTVSS
VL: DIQMTQSPSSLSASVGDRVTITCRASQSVSTSSYSYMHWYQQKPGKAPKLLIKYASNLESGVPSRFSGSGSGTDFTLTISSLQPEDFATYYCQHSWEIPYTFGGGTKVEIK
